This note sets out measurements from the METLIN SMRT retention time set (Domingo-Almenara et al. 2019).

Molecules are shown by their SMILES.

The data set in a line: gradient 5% acetonitrile 3 min, to 50% in 2 min, to 85% in 15 min, held 3 min, 100 µL/min. The settings on record: column: Zorbax Extend-C18 2.1 x 50 mm; eluents: water / acetonitrile, 0.1% formic acid. In outline:
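Over 3 months, pure standards in mixtures of ~100 molecules were run by HPLC coupled to a quadrupole time-of-flight mass spectrometer in positive and negative ionization mode. The column was a Zorbax Extend-C18 (2.1 × 50 mm, 1.8 μm) at 100 μL/min, eluted with water and acetonitrile each holding 0.1% formic acid, with 40 μL dead and 900 μL dwell volumes. Retention time was determined from adduct peaks chosen by software and checked manually.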
Molecule `Cc1ccc(C)c(NC(=O)C(C)Oc2cc(C(F)(F)F)c3c(C)nn(C)c3n2)c1` (centres undefined) had an RP-LC retention time of 1040 s. In turn, `COc1ccccc1-c1nc(Cn2nnc(-c3nc(-c4ccc(C)c(C)c4)no3)c2C)c(C)o1` had an RP-LC retention time of 1240 s. In turn, `Cn1nc(-c2nc(C3CC3)no2)c2c1CCN(C(=O)NCc1ccccc1)C2` registered an RP-LC retention time of 788 s. The result for `Cc1ccc(-c2nc3cnccn3c2Nc2ccc(C(C)C)cc2)cc1` reads 1140 s; that for `Cn1cccc1C(=O)N1CCC2(CC1)NC(=O)N(Cc1ccccc1Cl)C2=O`, 790 s; that for `O=C(NCCOc1ccc(-c2cccs2)nn1)NCc1ccccc1`, 734 s. `CCOC(=O)c1c(C)oc2nc(C)nc(NCCCN3CCN(c4ccccc4)CC3)c12` yielded an RP-LC retention time of 826 s. `CCC(C(=O)Nc1nc2ccccc2[nH]1)n1cnc2ccccc2c1=O` (centres undefined): the RP-LC retention time came out at 652 s.

In turn, `COC(=O)c1cc(S(=O)(=O)N2CCCC2C(=O)Nc2ccc(F)cc2F)cn1C` (centres undefined) returned an RP-LC retention time of 875 s.

In turn, `CCCN1C(=O)COc2cc(-c3noc(C(=O)NCCC(C)C)n3)ccc21` gave an RP-LC retention time of 1060 s.

Consider `Cc1ccsc1CN1CCCC(c2nc(-c3cccnc3)n[nH]2)C1` (centres undefined), for which the RP-LC retention time was 561 s. For the molecule `O=C(Cc1ccc(F)cc1)Nc1nnc(-c2ccc(Br)cc2)s1`, the RP-LC retention time is 952 s.

On to `O=C(CN1CCN(Cc2ccc(F)cc2)C1=O)NCc1cc(F)ccc1F`, for which the RP-LC retention time came out at 806 s. On to `O=C(NCCc1ccccc1)c1nnc(-c2ccc(S(=O)(=O)N3CCOCC3)cc2)o1`, for which the RP-LC retention time was found to be 845 s. `CCCCN(C)c1ncc(C(=O)Nc2ccccc2)c(N)n1` gave an RP-LC retention time of 702 s. In the case of `CC(C)C(NC(=O)c1cccc(C#N)c1)C(=O)N1CCN(c2ccccn2)CC1` (centres undefined), the RP-LC retention time is 620 s. `CCC(C)NC(=O)C1CCN(S(=O)(=O)c2cn(CC)cn2)CC1` (centres undefined) yielded an RP-LC retention time of 639 s.

As for `CCn1cc(C(=O)Nc2ccc(C)cc2)c(S(=O)(=O)N2CCSCC2)n1`, the RP-LC retention time worked out at 887 s. The molecule `O=C(NCc1cccs1)NCC1CN(c2cccc(Cl)c2)C(=O)O1` (centres undefined) registered an RP-LC retention time of 731 s. Regarding `O=C(Cc1ccccc1Cl)Nc1nnc(C2CC(=O)N(c3ccc(F)cc3)C2)o1` (centres undefined), the RP-LC retention time stood at 705 s.

On to `COc1cccc(CN2C[C@@H]3C(=O)N(Cc4ccc5c(c4)OCO5)C(=O)[C@@H]3C2)c1OC`, for which the RP-LC retention time was determined as 704 s. `CCC(c1cccs1)N1C(=O)[C@H]2CN(S(=O)(=O)c3ccc(F)c(F)c3)C[C@H]2C1=O` (some centres undefined) yielded an RP-LC retention time of 1020 s. Molecule `CCOC(=O)C1=C(C)NC(C)=C(C(=O)OCC)C1c1c(F)c(F)c(F)c(F)c1F` gave an RP-LC retention time of 1240 s. The result for `CCn1cc(S(=O)(=O)Nc2cc(OC)cc(OC)c2)c2cccnc21` reads 817 s; that for `Cc1nc(-c2csc(S(=O)(=O)N3CCC(C(=O)Nc4ccc(F)cc4)CC3)c2)no1`, 916 s. Take `O=C(Cc1cccc(F)c1)N1CC(N2CC(C(=O)N3CCCC3)CC2=O)C1` (centres undefined): the RP-LC retention time is 648 s. With `COc1cccc(CN2N=C(C(=O)N3CCCC3)S(=O)(=O)c3ccccc32)c1`, the RP-LC retention time was found to be 843 s. Consider `CCCC(C)NC(=O)CN1c2ccc(F)cc2-c2ccccc2S1(=O)=O` (centres undefined), for which the RP-LC retention time was 950 s. Molecule `CC(C)N1C(=O)c2cccnc2Sc2cc(NC(=O)c3ccsc3)ccc21` had an RP-LC retention time of 832 s. Turning to `N#Cc1ccc(C(=O)N2CCN(c3cc(-c4cccs4)[nH]n3)CC2)cc1`, the RP-LC retention time stood at 749 s. As for `O=C(NC1CC1)C1(CCO)CCN(Cc2ccccc2)C1` (centres undefined), the RP-LC retention time was found to be 564 s. Regarding `CCN(CC)S(=O)(=O)c1ccc2c(c1)N(CC(=O)NCc1ccccc1)C(=O)C1CCCCN21` (centres undefined), the RP-LC retention time amounted to 945 s. In the case of `CCn1nc(CNC(=O)c2cccs2)c2ccccc21`, the RP-LC retention time was found to be 798 s.

`Cn1nc(C(=O)N2CCCC(C(=O)Nc3ccccc3)C2)c2c1CCN(C(=O)Cc1cccs1)C2` (centres undefined): the RP-LC retention time amounted to 748 s. On to `COc1ccc(NC(=O)N2CCCC2c2nc(-c3ccccc3OC)no2)cc1OC` (centres undefined), for which the RP-LC retention time is 941 s. The result for `O=c1n(Cc2ccc(F)cc2Cl)nc2c(S(=O)(=O)N3CCCC3)cccn12` reads 1020 s; that for `CCOC(=O)C1CCCN(C(=O)CCCSc2ccc(NC(=O)C3CC3)nn2)C1` (centres undefined), 726 s; that for `COc1ccc(-c2noc(C3CCCN3C(=O)c3ccco3)n2)cc1OC` (centres undefined), 780 s. Consider `CC(=O)N1CCc2c(sc(NC(=O)C3(c4ccc(Cl)cc4)CCCC3)c2C#N)C1`, for which the RP-LC retention time is 946 s. The result for `CC(CN(CCS(=O)(=O)N1CCNCC1)C(=O)c1ccc(Br)cc1)c1ccccc1` (centres undefined) reads 735 s; that for `Cc1ccc(N2CC(c3nc(-c4ccc(N(C)C)cc4)no3)CC2=O)cc1Cl` (centres undefined), 1160 s; that for `CCCN1C(=O)C(CC(=O)NC2CCCCC2)Sc2ncccc21` (centres undefined), 803 s. `O=C(NCc1ccccn1)C(=O)NCC1OCCN1C(=O)c1ccc2c(c1)OCO2` (centres undefined) came in with an RP-LC retention time of 563 s.

Consider `COc1ccc(CCS(=O)(=O)N(Cc2ccsc2)C2CC2)cc1`, for which the RP-LC retention time was determined as 1000 s. The result for `c1ccc(-c2nc(C3CC3)no2)c(OC2CN(Cc3ccncc3)C2)c1` reads 611 s. Molecule `Cc1cc(N2CCCC2)nc(N2CCN(C(=O)C3CCCCC3)CC2)n1` yielded an RP-LC retention time of 693 s. `CCOC(=O)N1CCN(Cc2c(NC(=O)c3ccccc3)sc(C)c2C)CC1`: the RP-LC retention time came out at 630 s. As to `COc1ccc(CCC(=O)N2CCC(n3nnc4cc(F)ccc4c3=O)CC2)cc1`, the RP-LC retention time was 784 s. On to `O=C(NCC(=O)N1CCCc2ccccc21)c1ccccc1Br`, for which the RP-LC retention time is 822 s. Regarding `COc1ccc(CCNC(=O)C2CCCN(c3ccc(-c4ccco4)nn3)C2)cc1OC` (centres undefined), the RP-LC retention time was 618 s. Molecule `O=C(OCc1nc2ccccc2s1)c1ccc([N+](=O)[O-])o1` yielded an RP-LC retention time of 848 s. The result for `O=S(=O)(c1cccn2c(SCc3ccc(F)cc3)nnc12)N1CCCC1` reads 829 s; that for `c1ccc(-c2nc(-c3cnccn3)no2)c(OC2CCN(C3CCSCC3)C2)c1` (centres undefined), 653 s.

In turn, `Cc1ccc(-n2c(N3CCCC(C(=O)NCC4CC4)C3)nc3ccsc3c2=O)cc1` (centres undefined) showed an RP-LC retention time of 805 s. As to `COc1ccc(NC(=O)N2CCC3(CC2)NC(=O)c2ccc(Cl)cc2N3C)cc1OC`, the RP-LC retention time turned out to be 734 s. `CCOC(=O)C1CCCN(c2nc(Nc3ccc(F)cc3)c3n[nH]nc3n2)C1` (centres undefined) gave an RP-LC retention time of 824 s. Take `Cc1ccc(-c2nccn3cc(C(=O)N4CCN(C(C)C)CC4)nc23)cc1`: the RP-LC retention time was 620 s. Consider `Cc1nc(C)c(C(=O)N2CCCC(c3nnc(-c4ccc5c(c4)OCO5)o3)C2)s1` (centres undefined), for which the RP-LC retention time amounted to 669 s. `COc1cc2c(cc1OC)C(C(=O)Nc1ccc3c(c1)OCCO3)C(c1cccs1)N(C)C2=O` (centres undefined) yielded an RP-LC retention time of 783 s. In the case of `CCCc1nnsc1C(=O)Nc1nnc(Cc2ccc(F)cc2)o1`, the RP-LC retention time came to 890 s. The result for `COc1cc(NC(=O)COc2cc(C)nc(-c3ccc(C(F)(F)F)cc3)n2)cc(OC)c1OC` reads 1080 s; that for `COc1ccc2ncc(S(=O)(=O)c3ccccc3)c(Nc3ccc4c(c3)OCCO4)c2c1`, 855 s. As for `CN(C)S(=O)(=O)c1ccc(C(=O)Nc2cccc([N+](=O)[O-])c2)cc1`, the RP-LC retention time amounted to 858 s.

`O=C(NC(c1ccccc1)c1nnc(N2CCCCC2)o1)C1CCCCC1` (centres undefined): the RP-LC retention time was 878 s. The molecule `Cc1ccc(S(=O)(=O)NC2CCN(c3ccccc3)C2=O)cc1` (centres undefined) displayed an RP-LC retention time of 876 s. Turning to `COc1ccc(OC)c(NC(=O)N(C)CCc2noc(-c3ccc(Cl)cc3)n2)c1`, the RP-LC retention time stood at 972 s. `CC(C)NC(=O)N1CCC2(CC1)NCCc1c2[nH]c2ccccc12` registered an RP-LC retention time of 618 s. The result for `COc1ccc(CN2C=C(C(=O)OCc3noc(-c4ccc(C)cc4)n3)C(C)=NS2(=O)=O)cc1` reads 1170 s; that for `COc1ccc(CCC(=O)NCCCOc2cccc3cccnc23)cc1`, 593 s; that for `COc1ccc(CC(=O)NC2CCN(c3cc(-c4ccc(Cl)cc4)[nH]n3)C2)cc1` (centres undefined), 762 s.

In the case of `Cc1nn(CC(=O)N2CCCC(C)C2)c(=O)c2nc(-c3ccccc3)sc12` (centres undefined), the RP-LC retention time amounted to 875 s. The result for `COc1cccc(CNC(=O)Cn2ccc3ccc(N4CCOCC4)nc32)c1` reads 858 s. `COC(=O)c1ccccc1NC(=O)N1CCOc2ccc(C)cc21` had an RP-LC retention time of 1140 s. `CC(C)CNC(=O)c1c2c(nc3ccccc13)CCCC2` yielded an RP-LC retention time of 639 s. As for `O=C1NCCc2ccc(NC(=O)C3CC(=O)N(c4ccc(Cl)cc4)C3)cc21` (centres undefined), the RP-LC retention time was 661 s. As for `Cc1ccc(Cl)cc1N1CCN(C(=O)C2CC(=O)c3ccccc32)CC1` (centres undefined), the RP-LC retention time turned out to be 922 s.

In turn, `CCOC(=O)C(C)Sc1nnc(NC(=O)c2cccc([N+](=O)[O-])c2C)s1` (centres undefined) came in with an RP-LC retention time of 859 s. The molecule `COc1ccccc1NC(=O)C1CCN(S(=O)(=O)c2cc(-c3noc(C4CC4)n3)cs2)CC1` gave an RP-LC retention time of 1020 s.

`Cc1ccc2[nH]cc(CCN3CC(C(=O)Nc4nnc(C(C)(C)C)s4)CC3=O)c2c1` (centres undefined): the RP-LC retention time stood at 801 s.
